What was measured:
NOD2 cellular signaling = assay: NOD2 signaling assay in HEK-Blue cells (NFkB-SEAP reporter, L18-MDP stimulated); format: cell-based; conditions: HEK-Blue cells expressing human NOD2, L18-MDP stimulation, 8 h; NI = no inhibition observed; read-out: EC50 HEK Blue RIPK2
Experimental: HEK-Blue cells expressing human NOD2 and NFkB-SAEP reporter (Invivogen) are seeded into 96 well clear plates at 7.5×10^3 cells per well in 100 μL of DMEM media supplemented with 10% FBS and 1% antibiotic-antimycotic mix. Cells are allowed to attach for 48 h in 5% CO2 tissue culture incubator at 37° C. On the morning of the experiment, media in the wells is replaced with 100 μL of HEK-Blue detection media (Invivogen). Cells are treated with the inhibitors, diluted in DMSO (0.5 μL per well) for 15 min in 5% CO2 tissue culture incubator at 37° C. After that, cells are stimulated by the addition of 1 ng/well L18-MDP (Invivogen). Cells are incubated in 5% CO2 tissue culture incubator at 37° C. for 8 h and absorbance, corresponding to the SEAP in the media, is determined in Wallac3V plate reader (Perkin Elmer). Inhibition, %=(1−((sample signal-unstimulated and DMSO treated cells)/(L18-MDP stimulated and DMSO treated cells—unstimulated and DMSO treated cells)))*100.

[1] = target: Recombinant RIPK2 protein (Homo sapiens, UniProt O43353); assay: Receptor Interacting Protein Kinase 2 (RIPK2) enzyme assay (ADP-Glo); format: biochemical; conditions: 2 h at room temperature
Text: Receptor Interacting Protein Kinase 2 (RIPK2) Enzyme Assay
Inhibition, %=(1−(test signal/maximal signal))*100.

human ALK2 = target: T1, human ALK2 (Homo sapiens, UniProt Q04771); assay: Activin-Like Kinase 2 (ALK2) enzyme assay (33P-casein); format: biochemical; conditions: casein 1 mg/mL, 30 min; NI = no inhibition observed
T1 sequence (Q04771 21-509): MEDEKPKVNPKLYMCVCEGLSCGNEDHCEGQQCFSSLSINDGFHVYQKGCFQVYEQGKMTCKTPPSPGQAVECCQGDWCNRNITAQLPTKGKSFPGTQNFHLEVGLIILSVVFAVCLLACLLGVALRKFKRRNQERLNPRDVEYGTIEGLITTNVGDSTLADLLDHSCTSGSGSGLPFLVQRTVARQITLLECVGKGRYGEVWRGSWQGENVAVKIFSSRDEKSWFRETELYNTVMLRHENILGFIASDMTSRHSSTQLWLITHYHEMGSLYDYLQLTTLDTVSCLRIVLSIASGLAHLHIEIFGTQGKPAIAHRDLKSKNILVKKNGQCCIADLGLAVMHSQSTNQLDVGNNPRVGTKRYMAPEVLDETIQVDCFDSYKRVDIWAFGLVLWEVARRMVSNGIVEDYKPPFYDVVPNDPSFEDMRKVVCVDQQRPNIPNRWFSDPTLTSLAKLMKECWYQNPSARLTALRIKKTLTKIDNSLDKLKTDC
Experimental: Activin-Like Kinase 2 (ALK2) Enzyme Assay
Enzyme inhibitory activity was evaluated in a standard kinase enzyme assay by incubating human ALK2 with the protein substrate casein (1 mg/mL) and γ-^33ATP (10 µM) in the presence of various concentrations of test compounds (10 nM-100 μM). After 30 min the amount of ^33P-casein was determined.

Sequence of Recombinant RIPK2 protein (O43353 whole entry): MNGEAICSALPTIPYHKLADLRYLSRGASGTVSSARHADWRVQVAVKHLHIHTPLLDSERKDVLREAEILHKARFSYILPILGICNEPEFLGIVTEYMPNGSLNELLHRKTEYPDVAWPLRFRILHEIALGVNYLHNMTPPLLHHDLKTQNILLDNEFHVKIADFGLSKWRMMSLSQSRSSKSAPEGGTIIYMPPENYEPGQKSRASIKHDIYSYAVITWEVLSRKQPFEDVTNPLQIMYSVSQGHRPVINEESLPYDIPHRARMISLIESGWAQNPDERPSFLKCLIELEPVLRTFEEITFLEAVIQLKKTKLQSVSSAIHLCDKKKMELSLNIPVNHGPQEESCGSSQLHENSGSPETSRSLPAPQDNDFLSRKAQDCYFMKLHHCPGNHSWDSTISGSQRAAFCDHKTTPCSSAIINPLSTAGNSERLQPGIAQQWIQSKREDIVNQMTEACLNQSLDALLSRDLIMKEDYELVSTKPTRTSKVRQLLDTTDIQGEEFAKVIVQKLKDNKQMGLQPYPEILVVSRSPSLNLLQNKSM

EC50 (NOD2 cellular signaling) [nM] | IC50 [1] [nM] | IC50 (human ALK2) [nM] | Compound
168 | 22.1 | 326 | CCN(CC)CCOc1ccc(Nc2ncc3cc(-c4ccccc4Cl)ccc3n2)cc1 [UH15PN1, 6-(2-chlorophenyl)-N-(4-(2-(diethylamino)ethoxy)phenyl)quinazolin-2-amine]
353 | 30.2 | > 100000 | CS(=O)(=O)c1cccc(Nc2ncc3cc(-c4ccccc4Cl)ccc3n2)c1 [UH15PN2, 6-(2-chlorophenyl)-N-(3-(methylsulfonyl)phenyl)quinazolin-2-amine]
– | 29.6 | 8420 | CS(=O)(=O)c1cccc(Nc2ncc3cc(-c4ccc(O)cc4)ccc3n2)c1 [UH15PN3, 4-(2-((3-(methylsulfonyl)phenyl)amino)quinazolin-6-yl)phenol]
1960 | 41.5 | – | CS(=O)(=O)c1cccc(Nc2ncc3cc(-c4ccccn4)ccc3n2)c1 [UH15PN5, N-(3-(methylsulfonyl)phenyl)-6-(pyridin-2-yl)quinazolin-2-amine]
450 | 25 | – | CS(=O)(=O)c1cccc(Nc2ncc3cc(-c4cccnc4)ccc3n2)c1 [UH15PN6, N-(3-(methylsulfonyl)phenyl)-6-(pyridin-3-yl)quinazolin-2-amine]
406 | 27.3 | > 100000 | Cn1c(=O)c(-c2ccccc2Cl)cc2cnc(Nc3cccc(S(C)(=O)=O)c3)cc21 [UH15_32, 3-(2-chlorophenyl)-1-methyl-7-((3-(methylsulfonyl)phenyl)amino)-1,6-naphthyridin-2(1H)-one]

Further lines, the molecule ahead of its results:

Compound | EC50 (NOD2 cellular signaling) [nM] | IC50 [1] [nM] | IC50 (human ALK2) [nM]
Cn1c(=O)c(-c2ccccc2Cl)cc2cnc(Nc3cccc(N4CCNCC4)c3)cc21 [UH15_25, 3-(2-chlorophenyl)-1-methyl-7-((3-(piperazin-1-yl)phenyl)amino)-1,6-naphthyridin-2(1H)-one] | 55 | – | –
Cn1c(=O)c(-c2ccccc2Cl)cc2cnc(Nc3cccc(N4CCNCC4)c3)nc21 [UH15_33, 6-(2-chlorophenyl)-8-methyl-2-((3-(piperazin-1-yl)phenyl)amino)pyrido[2,3-d]pyrimidin-7(8H)-one] | 0.2 | 21.6 | 226
Cn1c(=O)c(-c2ccccc2Cl)cc2cnc(Nc3cccnc3)nc21 [UH15_34, 6-(2-chlorophenyl)-8-methyl-2-(pyridin-3-ylamino)pyrido[2,3-d]pyrimidin-7(8H)-one] | 34 | 35.2 | 1100
Cn1c(=O)c(-c2ccccc2Cl)cc2cnc(Nc3ccccn3)nc21 [UH15_35, 6-(2-chlorophenyl)-8-methyl-2-(pyridin-2-ylamino)pyrido[2,3-d]pyrimidin-7(8H)-one] | 949 | 87.4 | –

Source: patent US12012402B2, “Pyrido[2,3-d]pyrimidin-7-ones and related compounds as inhibitors of protein kinases” (UNIVERSITY OF HOUSTON SYSTEM, priority 2017, dated 2024)
